Reference: patent publication US20040214184A1, “Small peptides capable of modulating the function of cd66 (ceacam) family members” (priority 2001, published 2004)
Entries after “also recorded” stand apart in the source; their conditions may differ.

Tested on: T-cells
Assay: T-cell activation assay (anti-CD3 stimulated proliferation, 3H-Tdr incorporation)
Assay type: cell-based
Conditions: for activity in the T-cell activation assay (T-cell activation by anti-CD3, proliferation quantitated by 3H-Tdr incorporation): 30 min preincubation, anti-CD3 0.3 μg/ml, 56 h then 16 h with 3H-Tdr
Experimental: FIG. 1. Effects of CD66a peptides on T-cell activation by anti-CD3. T-cells were added to media containing the indicated CD66a peptide S28 ((CD66a-24), (SEQ ID NO:1)) at 150 μg/ml (final concentration) or positive or negative controls in 96 well microtiter plates, and the plates were incubated at 37° C. for 30 min in 5% CO2. Media containing anti-CD3 anitbody was then added and the cells were incubated at […] for 56 hours. Twenty μL of media containing 1 μCi of ^3H-Tdr was then added to each well and the plates were incubated at 37° C. for 30 min in 5% CO2 for an additional 16 hours. The cells were then harvested onto glass fiber filter papers and the radioactivity incorporated into the cells was then determined by liquid scintillation counting. Values are shown as the amount of ^3H-Tdr incorporation in the presence of the indicated peptide as a percent of that incorpoated in the absence of peptide, and represent the means+/−SD of 4 separate determinations.
Cell Preparation. Peripheral blood mononuclear cells (PBMC) were isolated by centrifugation of heparinized blood on a Ficoll/Hypaque (Pharmacia, Uppsala, Sweden) density gradient. Cells from the interface of the gradient were harvested, and resuspended at a concentration of 10^6/ml in medium [RPMI-1640 supplemented with 10% heat inactivated fetal bovine serum, 2 mM L-glutamine, 10 mM HEPES buffer, pH 7.4, 100 U/ml penicillin and 100 ug/ml streptomycin (Gibco, Paisley, U.K.)]. To isolate T-cells, adherent cells were eliminated from PBMC by culture for one hour at 37° C. in 5% CO2 on tissue culture-treated plastic. Remaining B-cells, monocytes, and NK cells were deleted by immunomagnetic negative selection using anti-CD14, anti-CD19, and anti-CD56 microbeads per the manufacturer's recommendations (Miltenyi Biotec GMBH, Bergisch Gladbach, Germany). The purity of the isolated T-cells was >90% as assessed by flow cytometry using FITC-labeled anti-CD3 (Pharmingen, Hamburg, Germany).
T-cell activation assay. Purified T-cells (1×10^5/well) were plated into flat-bottomed 96 well microtiter plates (Greiner, Frickenhausen, Germany) and peptides were added at the indicated concentration. T-cells were incubated with the peptides for 30 min and then stimulated by adding 0.3 μg/ml of anti-CD3 mAb (Pharmingen). The cells were then incubated at 37° C. in 5% CO2 for 56 hours. One μCi of tritiated thymidine (3H-Tdr) (Amersham Buchler, Braunschweig, Germany) in 20 μl of RPMI-1640 was then added to each well, and the cells were cultured for another 16 hours. Cells were then harvested with a cell harvester (Pharmacia LKB-Wallac) onto glass fiber filter paper in a minifold filtration unit (Wallac, Turku, Finland). Individual filters were dissolved in scintillation fluid, and ^3H-Tdr incorporation was measured with a liquid scintillation counter (Pharmacia).

Substance	activity in the T-cell activation assay (T-cell activation by anti-CD3, proliferation quantitated by 3H-Tdr incorporation) (peptide 150 μg/ml)	T-cell proliferation (3H-Tdr incorporation) in the presence of peptide compared with media alone (positive control) (peptide 150 μg/ml, anti-CD3 stimulation, 4 determinations, p<0.05)	cell proliferation (3H-Tdr incorporation) in the presence of peptide compared with the 2 scrambled peptides S159 and S160 (peptides 150 μg/ml, anti-CD3 stimulation, 4 determinations, p<0.05)
IRWFFKN [Peptide S182, smaller part (right) of peptide S28]	had activity		
TGISIRW [Peptide S181, smaller part (middle) of peptide S28]	had activity		
TNDTGIS [Peptide S180, smaller part (left) of peptide S28]	had activity		
TNDTGISIRWFFKN [Peptide S28, 14-amino-acid peptide derived from CD66a]	inhibited T-cell activation by anti-CD3 compared with control; also recorded: found to have activity; also recorded: potent inhibitor of T-cell activation	statistically less than that observed with media alone	statistically less than that observed with the 2 scrambled peptides
